SMILES strings stand for the structures. pIC50: −log10 of the molar value. Active and inactive are the calls of the source. The rule behind the calls is not given here.

For this assay, the target named is cAMP-dependent protein kinase catalytic subunit alpha (Homo sapiens) (UniProt P17612). The assay can be described thus: PubChem AID 548. As to conditions: Purified PKA, Kemptide, Kinase-Glo ATP luminescence. For orientation: Kinase-Glo reads ATP consumption through a luciferase reaction.

One may read the IC50 as the concentration that inhibits the measured activity by half. For `Nc1c(S(=O)(=O)c2cccc(Cl)c2)c2nc3ccccc3nc2n1/N=C/c1ccc(O)c(O)c1`, the IC50 is > 59.6 µM (inactive).

One may read the pIC50 as −log10 of the IC50, conventionally taken in molar units. For the compound `O/N=C/c1c[nH]c2ccccc12`, the negative logarithm of the IC50 (pIC50) was 4.46.

(Values after PubChem BioAssay AID548 (The Scripps Research Institute Molecular Screening Center, 2006).)
